Type in all cases: cell-based, human
Data set [1] relates to HCT-116 cells reverse transfected with anti-miR-451a. The data set can be described thus: Chemosensitivity model: cell proliferation (CellTiter-Glo) with SHP2 and RAF inhibitors. The note with it: 3.5 uM SHP2-inhibitor, 20 uM RAF-inhibitor, alone or combined; treated 24 hours post transfection. On the procedure:
HCT-116 cells (American Type Culture Collection) were cultured in McCoy's media supplemented with 10% fetal bovine serum (FBS) and antibiotics. Cells were tested and found negative for mycoplasma contamination before use in the assays described. Cells were reverse transfected with miR-451a-5p mimics or inhibitors with their respective controls (purchased from Life Technologies), using Lipofectamine® RNAiMAX (Invitrogen) per manufacturer's instructions. We report highly efficient transfection (>90%) of mimics and inhibitors in cell culture, as measured by fluorescent miR control. Cells were irradiated in a Shepherd^137 cesium irradiator at a rate of 1.34 cGy min. HCT-116 cells were initially transfected in a six-well plate, then transferred to a 96-well plate 16 hours post-transfection (2000 cells/well). In the chemosensitivity model, HCT-116 cells were treated with SHP2 inhibitor SHP099, 6-([…]-4-methyl-1-piperidinyl)-3-(2,3-dichlorophenyl)-2-pyrazinamine (Cayman Chemical, cat#20000) (3.5 μM), and RAF inhibitor (selective paradox breaker; SelleckChem, PLX7904, N′-[3-[[5-(2-cyclopropyl-5-pyrimidinyl)-1H-pyrrolo[2,3-b]pyridin-3-yl]carbonyl]-2,4-difluorophenyl]-N-ethyl-N-methyl-sulfamide, cat#57964) (20 μM) at 24 hours post transfection. Cell proliferation was analyzed at 48 hours post irradiation, using CellTiter-Glo®, per the manufacturer's instructions.
In general terms: ATP-based viability assays read luminescence as a measure of living cells.

In data set [2] the test system is HCT-116 cells. The data set can be described thus: Proliferation in 2D culture (Cell Titer-Glo) after transfection and radiation. The text has this: HCT-116 cells were reverse transfected with miR-451a-5p mimics, inhibitors and their respective controls were purchased from Life Technologies using Lipofectamine RNAiMAX (Invitrogen) according to manufacturer's instructions.
Cells or mice were irradiated on a Shepherd^137 cesium irradiator at a rate of […] 1.34 cGy min. In tumour-targeted radiation experiments, mice were restrained in a lead shield (Brain Tree Scientific) to minimize exposure to the non-tumour areas.
(§1) HCT-116 cells were transfected in a 6 well plate with miR-451a-5p mimic or inhibitor, and the corresponding controls from Life Technologies as previously described. Cells were transferred to a 96 well plate 16 hours post-transfection (1000 cells/well). At 24 hours post-transfection the HCT-116 cells were irradiated with 0, 2, or 5 Gy. Cell Titer-Glo and Caspase 3/7 Glo were analyzed at 48 hours and 96 hours post-irradiation, according to manufacturer's instructions.

For data set [3], the system named is HCT-116 cells. The data set can be described thus: Tumorsphere (3D culture) proliferation assay after transfection and radiation. The note with it: miR-451a mimic vs control mimic, 48 hours after radiation. Here is the method: FIG. 2B is a graph showing results where HCT116 were transfected with a miR-451a mimic or a control mimic. Proliferation was analyzed 48 hours after radiation in 3D cultures with the indicated doses. Bars depict mean±s.e.m. of triplicate wells. ** indicates P<0.01 on a two-tailed Student's T-test.
FIG. 3B is a graph showing results where HCT116 were transfected with a miR-451a inhibitor (anti-miR-451a) or a control anti-miR. Proliferation was analyzed 48 hours after radiation in 3D culture with the indicated doses. Bars depict mean±s.e.m. of triplicate wells. ** indicates P<0.01 on a two-tailed Student's T-test.
as §1

Data set [4] concerns HCT-116 cells. The data set can be described thus: Colony formation assay (surviving fraction). The note with it: miR-451a mimic vs control mimic, 0, 2 or 5 Gy, colonies counted 12-14 days after plating. Here is the method:
Cells were transfected with miR-451a-5p mimic or control mimic for 16 hours. Then cells were plated (100 or 200 cells for 0Gy, 200 or 400 cells/well for 2GY and 400 or 800 cells per well for 5Gy) in triplicate in a 6-well plate. Cells were irradiated 4 hours after plating, 0Gy, 2Gy or 5Gy. Two weeks after plating, cells were fixed and stained with crystal violet and colonies were counted. Surviving fraction was calculated based on the colony numbers normalized to the plating efficiency.

The subject of data set [5] is CAB39, EMSY, EREG, and MEX3C mRNAs. The data set can be described thus: miR-TRAP / RISC Trap assay. The note with it: HCT116 co-transfected with mutant RISC complex plasmid and miR-451a mimic or control mimic. The text has this:
Fold enrichment over pre-IP mRNAs is depicted. Results are representative of two independent experiments.
HCT116 cells were co-transfected with a plasmid coding for a flag-tagged dominant negative […] mutant (Clontech kit #632016) along with a control mimic or miR-451a-5p mimic according to manufacturer instructions. Twenty-four hours later the RNA protein complexes were crosslinked and the RISC complex was immunoprecipitated using an anti-FLAG antibody and RNA was isolated for quantitative real-time PCR of target genes. The fold enrichment was calculated using pre and post IP controls as well as normalization to the control mimic pull-downs.

For data set [6], the system named is CAB39, EMSY, EREG, and MEX3C mRNA in HCT-116 cells. The data set can be described thus: qRT-PCR of the miR-451 targets after transfection. The note with it: 24 h after transfection. On the procedure:
FIG. 4C is a plot of the results of qRT-PCR of the miR-451 targets in HCT-116 cells at 24 h after transfection.
This list was narrowed by filtering genes with a known role in human colorectal cancer and/or cellular response to ionizing radiation. […] A miR-Trap assay was used to pull down mRNAs enriched at the RNA induced silencing complex in cells transfected with miR-451a.
(Real-time PCR tracks product formation cycle by cycle.)

In the next data set the test system is HCT116. The data set can be described thus: Proliferation after radiation and 5-FU treatment. The note with it: miR-451a mimic vs control mimic, radiation and 5-FU (5 μM), 48 and 96 hours. On the procedure:
FIG. 6A is a graph of HCT116 transfected with a miR-451a mimic or a control mimic. Proliferation was analyzed 48 hours after radiation and 5-FU (5 μM) treatment. Mean of triplicate wells is plotted. * indicates P<0.01 on a two-tailed Student's T-test.
FIG. 6B is a graph of HCT116 transfected with a miR-451a mimic or a control mimic. Proliferation was analyzed 96 hours after radiation and 5-FU (5 μM) treatment. Mean of triplicate wells is plotted. * indicates P<0.01 on a two-tailed Student's T-test
as §1

On to `CC1(N)CCN(c2cnc(-c3cccc(Cl)c3Cl)c(N)n2)CC1` [SHP2-inhibitor, 6-(4-diamino-4-methyl-1-piperidinyl)-3-(2,3-dichlorophenyl)-2-pyrazinamine], for which the cell proliferation entry in data set [1] is on record as “significant decrease in cell proliferation”.
Still for that read-out and setting: as for `CCN(C)S(=O)(=O)Nc1ccc(F)c(C(=O)c2c[nH]c3ncc(-c4cnc(C5CC5)nc4)cc23)c1F` [RAF-inhibitor, N′-[3-[[5-(2-cyclopropyl-5-pyrimidinyl)-1H-pyrrolo[2,3-b]pyridin-3-yl]carbonyl]-2,4-difluorophenyl]-N-ethyl-N-methyl-sulfamide], the entry is “significant decrease in cell proliferation”.
With “miR-451a: miR-451a-5p mimic purchased from Life Technologies, transfected into HCT-116 cells; tumor suppressor miRNA (AAACCGUUACCAUUACUGAGUU; listed as RNA, chemistry not given here; listed as Homo sapiens)”, in the data set with HCT-116 cells [2] (miR-451a mimic vs control mimic, 48 hours after radiation), the “proliferation in a 2D culture” value was “decreased proliferation”. Further, the “effect in combination with radiation” value in the data set on HCT-116 cells [2] (on the phenotypes (proliferation, tumorsphere, colony formation), especially at the 5 Gy dose) is “slight additive effect with radiation”. In addition, the “proliferation in a tumorsphere assay” value with HCT-116 cells [3] is reported as “decreased proliferation”. For the same compound, the “surviving fraction colony formation” value in the data set on HCT-116 cells [4] is listed as “decreased proliferation”. In addition, the “enrichment of target mRNAs at the RNA induced silencing complex” value in data set [5] is “enriched at the RISC”. Besides, the “target gene expression at the mRNA level” value in data set [6] is recorded as “significant downregulation of all four target genes”. In addition, the “responses to 5-FU (proliferation)” value in the data set on HCT116 was “enhanced the responses to 5-FU”.

The values are drawn from patent US10988766B2, “Compositions and methods used in diagnosing and treating colorectal cancer” (Oregon Health & Science University, priority 2017, dated 2021).
